From patent US20250059220A1, “SUBSTITUTED BENZOTHIOPHENE DERIVATIVES AND METHODS OF USE THEREOF” (Merck Sharp & Dohme LLC, priority 2021, published 2025)

Tests used:
human PTPN1 (1-435) = human PTPN1 (1-435) (Homo sapiens (Human), UniProt P18031); assay: Human PTPN1 Biochemical Assay; details: DiFMUP substrate, read-out: PTP1B IC50
Summary of the method: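 Read-out is DiFMUP hydrolysis fluorescence (360 nm excitation, 460 nm emission) after 1 h at room temperature, following 30 min enzyme–compound preincubation.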

human PTPN2 (1-387) = human PTPN2 (1-387) (Homo sapiens (Human), UniProt P17706); assay: Human PTPN2 Biochemical Assay; details: DiFMUP substrate
human PTPN2 (1-387), sequence (P17706 other isoform, or with tags, fused parts or gaps): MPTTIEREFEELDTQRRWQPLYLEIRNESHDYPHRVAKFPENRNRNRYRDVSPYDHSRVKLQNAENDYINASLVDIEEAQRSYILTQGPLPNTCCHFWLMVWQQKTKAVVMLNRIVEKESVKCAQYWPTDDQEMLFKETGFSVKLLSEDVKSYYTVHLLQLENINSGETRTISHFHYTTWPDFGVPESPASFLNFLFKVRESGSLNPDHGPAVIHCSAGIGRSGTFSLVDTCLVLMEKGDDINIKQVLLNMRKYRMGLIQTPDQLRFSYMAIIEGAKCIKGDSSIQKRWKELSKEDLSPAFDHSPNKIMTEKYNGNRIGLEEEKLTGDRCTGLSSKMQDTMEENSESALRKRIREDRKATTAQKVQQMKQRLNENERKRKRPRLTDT
Summary of the method: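 Human PTPN2 (1-387) preincubated 30 min at RT with compound (10-point 3-fold series) in Tris pH 7.4 buffer with 0.5 mM DTT, then DiFMUP substrate added for 1 h at RT. Fluorescence at ex 360/em 460 nm, normalised to no-enzyme and enzyme controls; EC50 from 4-parameter fit.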

human PTPN1 (1-435), sequence (P18031 whole entry): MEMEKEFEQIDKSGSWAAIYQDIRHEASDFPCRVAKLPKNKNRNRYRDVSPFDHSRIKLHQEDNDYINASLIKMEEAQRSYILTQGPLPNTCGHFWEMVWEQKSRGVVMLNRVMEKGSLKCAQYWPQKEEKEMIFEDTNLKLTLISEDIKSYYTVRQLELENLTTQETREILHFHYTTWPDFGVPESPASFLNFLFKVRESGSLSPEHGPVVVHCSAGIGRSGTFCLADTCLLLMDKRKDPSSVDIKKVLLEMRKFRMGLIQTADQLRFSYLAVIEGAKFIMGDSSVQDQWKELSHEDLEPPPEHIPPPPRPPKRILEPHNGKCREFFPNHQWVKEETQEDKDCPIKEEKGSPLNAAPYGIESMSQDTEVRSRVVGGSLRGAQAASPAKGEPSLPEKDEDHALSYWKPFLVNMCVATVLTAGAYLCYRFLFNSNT

SMILES	IC50 (human PTPN1 (1-435))	IC50 (human PTPN2 (1-387))
N#CCOc1cc(C(N)=O)cc2c(Br)c(C(F)(F)P(=O)(O)O)sc12 [Compound 244]	259 nM	227 nM
NC(=O)c1cc(OCc2cc(F)cc(C(F)(F)F)c2)c2sc(C(F)(F)P(=O)(O)O)c(Br)c2c1 [Compound 247]	94.2 nM	54.4 nM
CS(=O)(=O)N1CCC(Oc2cc(C(N)=O)cc3c(Br)c(C(F)(F)P(=O)(O)O)sc23)C1 (stereo not shown) [Compound 248]	54 nM	50 nM
NC(=O)c1cc(OCC2CC3(CC3)C2)c2sc(C(F)(F)P(=O)(O)O)c(Br)c2c1 [Compound 249]	84.5 nM	60.9 nM
NC(=O)c1cc(OCCCOC(F)(F)F)c2sc(C(F)(F)P(=O)(O)O)c(Br)c2c1 [Compound 252]	110 nM	106 nM
CS(=O)(=O)NCCCOc1cc(C(N)=O)cc2c(Br)c(C(F)(F)P(=O)(O)O)sc12 [Compound 256]	66 nM	128 nM
NC(=O)c1cc(OCC(=O)Nc2c(F)cccc2F)c2sc(C(F)(F)P(=O)(O)O)c(Br)c2c1 [Compound 257]	237 nM	294 nM
O=P(O)(O)C(F)(F)c1sc2c(OCCCC(F)(F)F)cc(-c3cnn[nH]3)cc2c1Br [Compound 258, ((3-bromo-5-(1H-1,2,3-triazol-5-yl)-7-(4,4,4-trifluorobutoxy)benzo[b]thiophen-2-yl)difluoromethyl)phosphonic acid]	4.3 nM	8.39 nM
Nc1cc(OCCCC(F)(F)F)c2sc(C(F)(F)P(=O)(O)O)c(Br)c2c1 [Compound 259, ((5-amino-3-bromo-7-(4,4,4-trifluorobutoxy)benzo[b]thiophen-2-yl)difluoromethyl)phosphonic acid]	180 nM	338 nM
O=P(O)(O)C(F)(F)c1sc2c(OCCCC(F)(F)F)cc(-c3ccn[nH]3)cc2c1Br [Compound 260, ((3-bromo-5-(1H-pyrazol-5-yl)-7-(4,4,4-trifluorobutoxy)benzo[b]thiophen-2-yl)difluoromethyl)phosphonic acid]	11.4 nM	15.7 nM
N=C(N)c1cc(OCCCC(F)(F)F)c2sc(C(F)(F)P(=O)(O)O)c(Br)c2c1 [Compound 262, ((3-bromo-5-carbamimidoyl-7-(4,4,4-trifluorobutoxy)benzo[b]thiophen-2-yl)difluoromethyl)phosphonic acid]	42 nM	113 nM
O=P(O)(O)C(F)(F)c1sc2c(OCCCC(F)(F)F)cc(CN3CCOCC3)cc2c1Br [Compound 263, ((3-bromo-5-(morpholinomethyl)-7-(4,4,4-trifluorobutoxy)benzo[b]thiophen-2-yl)difluoromethyl)phosphonic acid]	386 nM	651 nM
NC(=O)c1cc(OCCC2CCCS2(=O)=O)c2sc(C(F)(F)P(=O)(O)O)c(Br)c2c1 (stereo not shown) [Compound 264, ((3-bromo-5-carbamoyl-7-(2-(1,1-dioxidotetrahydrothiophen-2-yl)ethoxy)benzo[b]thiophen-2-yl)difluoromethyl)phosphonic acid]	24 nM	26.3 nM
O=C(NCc1cccnn1)c1cc(OCCCCn2ccnc2)c2sc(C(F)(F)P(=O)(O)O)c(Br)c2c1 [Compound 265]	62 nM	60.3 nM
O=C(NCc1cccnn1)c1cc(OCCCc2cccnc2)c2sc(C(F)(F)P(=O)(O)O)c(Br)c2c1 [Compound 266]	17.4 nM	12.9 nM
O=C(NCc1cccnn1)c1cc(OCCCc2cncs2)c2sc(C(F)(F)P(=O)(O)O)c(Br)c2c1 [Compound 268]	15.7 nM	20 nM
NC(=O)c1cc(OCCC(F)(F)F)c2sc(C(F)(F)P(=O)(O)O)c(Br)c2c1 [Compound 271]	400 nM	338 nM
NC(=O)c1cc(OCCCC(F)(F)C(F)(F)F)c2sc(C(F)(F)P(=O)(O)O)c(Br)c2c1 [Compound 272]	35 nM	47.2 nM

SMILES	IC50 (human PTPN1 (1-435))	IC50 (human PTPN2 (1-387))
CCOCCCOc1cc(C(N)=O)cc2c(Br)c(C(F)(F)P(=O)(O)O)sc12 [Compound 273]	93 nM	132 nM
NC(=O)c1cc(OCC2CC(F)(F)C2(F)F)c2sc(C(F)(F)P(=O)(O)O)c(Br)c2c1 (stereo not shown) [Compound 275]	83 nM	176 nM
NC(=O)c1cc(OCC2CC3(C2)CC(F)(F)C3)c2sc(C(F)(F)P(=O)(O)O)c(Br)c2c1 [Compound 276]	17 nM	27.3 nM
CC(C)(C#N)CCCOc1cc(C(N)=O)cc2c(Br)c(C(F)(F)P(=O)(O)O)sc12 [Compound 278]	16 nM	17.4 nM
NC(=O)c1cc(OC[C@@H]2CC[C@H]2C(F)(F)F)c2sc(C(F)(F)P(=O)(O)O)c(Br)c2c1 [Compound 279]	97 nM	231 nM
NC(=O)c1cc(OCC2CC(OC(F)(F)F)C2)c2sc(C(F)(F)P(=O)(O)O)c(Br)c2c1 (stereo not shown) [Compound 280]	62 nM	99.4 nM
CC(F)(F)CCCOc1cc(C(N)=O)cc2c(Br)c(C(F)(F)P(=O)(O)O)sc12 [Compound 281]	18 nM	27.8 nM
NC(=O)c1cc(OCC[C@@H]2C[C@H]2C(F)(F)F)c2sc(C(F)(F)P(=O)(O)O)c(Br)c2c1 [Compound 282]	71 nM	168 nM
NC(=O)c1cc(OCCCCC(F)(F)C(F)(F)F)c2sc(C(F)(F)P(=O)(O)O)c(Br)c2c1 [Compound 285]	45 nM	77.9 nM
NC(=O)c1cc(OCC2C3CC4C(C3)C24)c2sc(C(F)(F)P(=O)(O)O)c(Br)c2c1 (stereo not shown) [Compound 287]	16 nM	45.3 nM
N#CC1(c2ccc(COc3cc(C(N)=O)cc4c(Br)c(C(F)(F)P(=O)(O)O)sc34)cc2)CC1 [Compound 288]	7.3 nM	6.86 nM
NC(=O)c1cc(OCC23COC(CF)(C2)C3)c2sc(C(F)(F)P(=O)(O)O)c(Br)c2c1 [Compound 290]	11 nM	9.74 nM
NC(=O)c1cc(OCCC(F)(F)C(F)(F)C(F)F)c2sc(C(F)(F)P(=O)(O)O)c(Br)c2c1 [Compound 291]	21 nM	26.8 nM
NC(=O)c1cc(OCCC23CC(C2)C3)c2sc(C(F)(F)P(=O)(O)O)c(Br)c2c1 [Compound 293]	246 nM	619 nM
NC(=O)c1cc(OCC2C(F)(F)C23CCC3)c2sc(C(F)(F)P(=O)(O)O)c(Br)c2c1 (stereo not shown) [Compound 294]	38 nM	80.7 nM
N#Cc1ccc2cc(C(F)(F)P(=O)(O)O)sc2c1Br [Compound 297, ((7-bromo-6-cyanobenzo[b]thiophen-2-yl)difluoromethyl)phosphonic acid]	7350 nM	26500 nM
O=P(O)(O)C(F)(F)c1sc2cc(Br)ccc2c1Br [Compound 298, ((3,6-dibromobenzo[b]thiophen-2-yl)difluoromethyl)phosphonic acid]	11700 nM	21600 nM

More lines, in order of falling IC50 (human PTPN1 (1-435)), values ahead:

IC50 (human PTPN1 (1-435))	IC50 (human PTPN2 (1-387))	SMILES
903 nM	1460 nM	NC(=O)COc1cc(C(N)=O)cc2c(Br)c(C(F)(F)P(=O)(O)O)sc12 [Compound 245]
423 nM	271 nM	NC(=O)c1cc(OCCOCC(F)F)c2sc(C(F)(F)P(=O)(O)O)c(Br)c2c1 [Compound 251]
155 nM	111 nM	CC(C)CCOc1cc(C(N)=O)cc2c(Br)c(C(F)(F)P(=O)(O)O)sc12 [Compound 254]
139 nM	96.4 nM	NC(=O)c1cc(OCCC2CC2)c2sc(C(F)(F)P(=O)(O)O)c(Br)c2c1 [Compound 255]
118 nM	84.6 nM	NC(=O)c1cc(OCC2CCC(F)(F)CC2)c2sc(C(F)(F)P(=O)(O)O)c(Br)c2c1 [Compound 253]
69.7 nM	54.1 nM	NC(=O)c1cc(OCC2CC2(F)F)c2sc(C(F)(F)P(=O)(O)O)c(Br)c2c1 (stereo not shown) [Compound 250]
69 nM	108 nM	C[C@@H]1C[C@@]1(F)COc1cc(C(N)=O)cc2c(Br)c(C(F)(F)P(=O)(O)O)sc12 [Compound 277]
68.4 nM	47.9 nM	N#CCCCCCCOc1cc(C(N)=O)cc2c(Br)c(C(F)(F)P(=O)(O)O)sc12 [Compound 243]
53.6 nM	63.2 nM	CC[C@@H]1C[C@H]1COc1cc(C(N)=O)cc2c(Br)c(C(F)(F)P(=O)(O)O)sc12 [Compound 289]
49 nM	78.6 nM	CC1(C)CC(COc2cc(C(N)=O)cc3c(Br)c(C(F)(F)P(=O)(O)O)sc23)C1 [Compound 292]
43 nM	64.9 nM	NC(=O)c1cc(OCCCCC(F)(F)F)c2sc(C(F)(F)P(=O)(O)O)c(Br)c2c1 [Compound 274]
42 nM	64.5 nM	NC(=O)c1cc(OCC2CC3(CCC3)C2)c2sc(C(F)(F)P(=O)(O)O)c(Br)c2c1 [Compound 284]
40 nM	76.9 nM	NC(=O)c1cc(OCCC2CC2(F)F)c2sc(C(F)(F)P(=O)(O)O)c(Br)c2c1 (stereo not shown) [Compound 286]
38 nM	38.9 nM	NC(=O)c1cc(OCC2CC(C3CC3)C2)c2sc(C(F)(F)P(=O)(O)O)c(Br)c2c1 (stereo not shown) [Compound 295]
37.1 nM	26.4 nM	NC(=O)c1cc(OCCCc2cncs2)c2sc(C(F)(F)P(=O)(O)O)c(Br)c2c1 [Compound 269]
28 nM	50.2 nM	CC12CC(COc3cc(C(N)=O)cc4c(Br)c(C(F)(F)P(=O)(O)O)sc34)(C1)C2 [Compound 283]
26 nM	12.2 nM	O=C(NCc1cccnn1)c1cc(OCCCc2ccncc2)c2sc(C(F)(F)P(=O)(O)O)c(Br)c2c1 [Compound 267]
23.3 nM	21.6 nM	CS(=O)(=O)CCCOc1cc(C(N)=O)cc2c(Br)c(C(F)(F)P(=O)(O)O)sc12 [Compound 270]
